# PubChem BioAssay (NCI)
#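 Values below derive from 48-hour exposures of cells grown in 96-well plates, with endpoints linearly interpolated between the two concentrations bracketing the appropriate inhibition level. At the TGI there is no net growth.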
# Legend:
# Assay in all cases: NCI anticancer screen, dose series, 48 h
# PC-3 prostate = test system: PC-3 prostate
# DLD-1 colon = test system: DLD-1 colon
# ACHN renal = test system: ACHN renal
# LOX IMVI melanoma = test system: LOX IMVI melanoma
# CAKI-1 renal = test system: CAKI-1 renal
# BT-549 breast = test system: BT-549 breast
# MDA-N = test system: MDA-N
# MALME-3M melanoma = test system: MALME-3M melanoma
# HT29 colon = test system: HT29 colon
# A549 NSCLC = test system: A549 NSCLC
# U251 CNS = test system: U251 CNS
# SNB-78 CNS = test system: SNB-78 CNS
# OVCAR-8 ovarian = test system: OVCAR-8 ovarian
# TK-10 renal = test system: TK-10 renal
# NCI/ADR-RES ovarian = test system: NCI/ADR-RES ovarian
# LXFL 529 NSCLC = test system: LXFL 529 NSCLC
# DMS 273 small cell lung = test system: DMS 273 small cell lung
# IGROV1 ovarian = test system: IGROV1 ovarian
# NCI-H460 lung = test system: NCI-H460 lung
# HOP-62 NSCLC = test system: HOP-62 NSCLC
# M19-MEL melanoma = test system: M19-MEL melanoma
# SNB-19 CNS = test system: SNB-19 CNS
# SK-MEL-5 melanoma = test system: SK-MEL-5 melanoma
# HL-60(TB) leukemia = test system: HL-60(TB) leukemia
# K-562 leukemia = test system: K-562 leukemia
# HCT-116 colon = test system: HCT-116 colon
# DMS 114 small cell lung = test system: DMS 114 small cell lung
# SK-MEL-2 melanoma = test system: SK-MEL-2 melanoma
# A498 renal = test system: A498 renal
# XF 498 CNS = test system: XF 498 CNS
# OVCAR-4 ovarian = test system: OVCAR-4 ovarian
# HCC-2998 colon = test system: HCC-2998 colon
# MDA-MB-231 breast = test system: MDA-MB-231 breast
# UACC-62 melanoma = test system: UACC-62 melanoma
# SK-MEL-28 melanoma = test system: SK-MEL-28 melanoma
# DU-145 prostate = test system: DU-145 prostate
# 786-0 renal = test system: 786-0 renal
# NCI-H522 lung = test system: NCI-H522 lung
# HOP-92 NSCLC = test system: HOP-92 NSCLC
# SR leukemia = test system: SR leukemia
# HS 578T breast = test system: HS 578T breast
# UACC-257 melanoma = test system: UACC-257 melanoma
# SF-295 CNS = test system: SF-295 CNS
# RXF 393 renal = test system: RXF 393 renal
# MDA-MB-435 = test system: MDA-MB-435
# SW-620 colon = test system: SW-620 colon
# HCT-15 colon = test system: HCT-15 colon
# SF-268 CNS = test system: SF-268 CNS
# COLO 205 colon = test system: COLO 205 colon
# M14 melanoma = test system: M14 melanoma
# HOP-18 NSCLC = test system: HOP-18 NSCLC
# UO-31 renal = test system: UO-31 renal
# T-47D breast = test system: T-47D breast
# RPMI-8226 leukemia = test system: RPMI-8226 leukemia
# SK-OV-3 ovarian = test system: SK-OV-3 ovarian
# MCF7 breast = test system: MCF7 breast
# SN12C renal = test system: SN12C renal
# KM12 colon = test system: KM12 colon
# NCI-H226 lung = test system: NCI-H226 lung
# NCI-H23 lung = test system: NCI-H23 lung
# EKVX NSCLC = test system: EKVX NSCLC
# CCRF-CEM leukemia = test system: CCRF-CEM leukemia
# OVCAR-3 ovarian = test system: OVCAR-3 ovarian
# SNB-75 CNS = test system: SNB-75 CNS
# SF-539 CNS = test system: SF-539 CNS
# MOLT-4 leukemia = test system: MOLT-4 leukemia
# OVCAR-5 ovarian = test system: OVCAR-5 ovarian
# KM20L2 colon = test system: KM20L2 colon
smiles,measurement,setting,value
CC(CCC=O)CCOCc1ccccc1 (stereo not drawn),TGI,PC-3 prostate,> 100 µM
same,TGI,DLD-1 colon,> 100 µM
same,TGI,ACHN renal,> 100 µM
same,TGI,LOX IMVI melanoma,> 91.2 µM
same,TGI,CAKI-1 renal,> 60.8 µM
same,TGI,BT-549 breast,> 100 µM
same,TGI,MDA-N,> 100 µM
same,TGI,MALME-3M melanoma,> 100 µM
same,TGI,HT29 colon,> 100 µM
same,TGI,A549 NSCLC,> 100 µM
same,TGI,U251 CNS,> 100 µM
same,TGI,SNB-78 CNS,> 100 µM
same,TGI,OVCAR-8 ovarian,> 100 µM
same,TGI,TK-10 renal,> 100 µM
same,TGI,NCI/ADR-RES ovarian,> 100 µM
same,TGI,LXFL 529 NSCLC,> 100 µM
same,TGI,DMS 273 small cell lung,> 100 µM
same,TGI,IGROV1 ovarian,> 100 µM
same,TGI,NCI-H460 lung,> 100 µM
same,TGI,HOP-62 NSCLC,> 100 µM
same,TGI,M19-MEL melanoma,> 100 µM
same,TGI,SNB-19 CNS,> 100 µM
same,TGI,SK-MEL-5 melanoma,> 46.4 µM
same,TGI,HL-60(TB) leukemia,45.1 µM
same,TGI,K-562 leukemia,> 100 µM
same,TGI,HCT-116 colon,> 100 µM
same,TGI,DMS 114 small cell lung,> 100 µM
same,TGI,SK-MEL-2 melanoma,> 100 µM
same,TGI,A498 renal,> 100 µM
same,TGI,XF 498 CNS,> 100 µM
same,TGI,OVCAR-4 ovarian,> 100 µM
same,TGI,HCC-2998 colon,> 100 µM
same,TGI,MDA-MB-231 breast,> 100 µM
same,TGI,UACC-62 melanoma,> 100 µM
same,TGI,SK-MEL-28 melanoma,> 100 µM
same,TGI,DU-145 prostate,> 100 µM
same,TGI,786-0 renal,> 100 µM
same,TGI,NCI-H522 lung,> 100 µM
same,TGI,HOP-92 NSCLC,> 100 µM
same,TGI,SR leukemia,> 80.7 µM
same,TGI,HS 578T breast,> 100 µM
same,TGI,UACC-257 melanoma,> 100 µM
same,TGI,SF-295 CNS,> 100 µM
same,TGI,RXF 393 renal,> 100 µM
same,TGI,MDA-MB-435,> 100 µM
same,TGI,SW-620 colon,> 100 µM
same,TGI,HCT-15 colon,> 100 µM
same,TGI,SF-268 CNS,> 100 µM
same,TGI,COLO 205 colon,> 100 µM
same,TGI,M14 melanoma,> 100 µM
same,TGI,HOP-18 NSCLC,> 100 µM
same,TGI,UO-31 renal,> 100 µM
same,TGI,T-47D breast,> 100 µM
same,TGI,RPMI-8226 leukemia,> 100 µM
same,TGI,SK-OV-3 ovarian,> 100 µM
same,TGI,MCF7 breast,22.7 µM
same,TGI,SN12C renal,> 100 µM
same,TGI,KM12 colon,> 100 µM
same,TGI,NCI-H226 lung,> 100 µM
same,TGI,NCI-H23 lung,> 100 µM
same,TGI,EKVX NSCLC,> 100 µM
same,TGI,CCRF-CEM leukemia,> 84.2 µM
same,TGI,OVCAR-3 ovarian,> 100 µM
same,TGI,SNB-75 CNS,> 100 µM
same,TGI,SF-539 CNS,> 100 µM
same,TGI,MOLT-4 leukemia,> 61.6 µM
same,TGI,OVCAR-5 ovarian,> 100 µM
same,TGI,KM20L2 colon,> 100 µM
